# Measured values reported in article PMC10652874, “Investigation into the mechanism of action of the antimicrobial peptide epilancin 15X” (Frontiers in Microbiology, 2023).
# Assays:
# [1] = Liposome leakage assay using flow cytometry (HaloTag / AF488 ligand); format: biochemical; conditions: 1 μM peptide, 37°C, 1 h
# [2] = system: fatty acid biosynthesis in S. carnosus TM300; format: cell-based, Staphylococcus carnosus; conditions: S. carnosus TM300, 2× MIC, normalized to OD600, three independent experiments
# Description: Thre e in de pen den t ex perime nts of incorporation of (A) 14C- acetic acid into fatty acids, (B) 14C- thymi din e into D NA, (C) 3H-uridi ne into RNA, (D) 14C- lab el ed ami no acids into protei n, and (E) 14C- label ed GlcNAc into cell w all in S. carnosus TM300 cells treated with vario u s antimicro bia l agents. T he p ercent i nco rpo ratio n at 0 min was measured after incubati ng the cel l cultur e with 0.8 μCi/mL radioactive precursors for 15 min. […] Positive controls a re gr een and negative controls are black (cells o nly) an d blu e (co mpo und w ith mo d e o f actio n unr elate d to th e a ssay i n que stio n). T he ra dio activity o f each a nti bio tic - treated cultur e was normalized based on it s OD600 at each time point compared to th e unt reate d ce ll cultur e.
# [3] = system: DNA biosynthesis in S. carnosus TM300; assay: Macromolecular synthesis assay: 14C-thymidine incorporation into DNA; format: cell-based, Staphylococcus carnosus; conditions: S. carnosus TM300, 2× MIC, three independent experiments
# Description: (§1) Radiolabel incorporation experiments were carried out similarly as previously described but using S. carnosus ([Wu et al., 2019]). The OD600 of parallel nonradioactive cultures was measured at each time point to normalize the measured radioactivity and minimize effects due to cell death and growth inhibition. The radiolabeled reagents and their corresponding positive and negative antibiotic controls were as follows. […] All experiments were conducted independently three times.
# (§2) Figure S3. Thre e in de pen den t ex perime nts of incorporation of (A) 14C- acetic acid into fatty acids, (B) 14C- thymi din e into D NA, (C) 3H-uridi ne into RNA, (D) 14C- lab el ed ami no acids into protei n, and (E) 14C- label ed GlcNAc into cell w all in S. carnosus TM300 cells treated with vario u s antimicro bia l agents. T he p ercent i nco rpo ratio n at 0 min was measured after incubati ng the cel l cultur e with 0.8 μCi/mL radioactive precursors for 15 min. Then 0.5x, 1x, 2x, or 4x MIC epilanci n 15X and 2x MIC controls were added to the cell cultur e (t=0), and t he percent incorporation was measur ed ov er time. Positive controls a re gr een and negative controls are black (cells o nly) an d blu e (co mpo und w ith mo d e o f actio n unr elate d to th e a ssay i n que stio n). […]
# S. carnosus TM300 [4] = assay: Membrane permeability study with propidium iodide (flow cytometry); format: cell-based, Staphylococcus carnosus; conditions: S. carnosus TM300, 20 min exposure, 0.5x, 1x, 4x MIC, n = 3
# Description: (§3) Cultures of S. carnosus TM300 and B. subtilis BSF2470 were grown to OD600 1.0 and diluted to OD600 0.1 in fresh BHI or LB medium, respectively. The culture was then combined with a final concentration of 25 μM PI (ThermoFisher P3566), 1 mM HEPES, and 1 mM glucose. […] Another two tubes were prepared without antibiotic treatment as controls. The culture was analyzed with a BD Biosciences LSR II flow cytometer for S. carnosus and a BD Biosciences LSRFortessa for B. subtilis using excitation at 488 nm with an argon laser and measurement of emission through a band-pass filter at 695/40 nm. A minimum of 30,000 events were detected for each sample. The experiment was repeated three times, and the mean PI uptake value was determined. The results were calibrated such that the mean PI uptake from the 4x MIC nisin-treated cell culture was set as 100% PI uptake.
# S. carnosus TM300 [5] = assay: Lipid protection assay (MIC with lipid-supplemented growth medium); format: cell-based, Staphylococcus carnosus; conditions: for Epilancin MIC: S. carnosus TM300
# Description: MIC determination was performed in a 96-well microtiter plate as described previously ([Wu et al., 2019]). Sensitive bacterial culture was grown in the appropriate medium (BHI for S. carnosus; LB for B. subtilis) at 37°C overnight. The culture was diluted to 10^5 CFU/mL in medium in each well. Epilancin 15X or its analog was dissolved in water and serially diluted to obtain final concentrations of 20, 10, 5, 2.5, 1.25, 0.625, 0.3125, 0.156, 0.078, 0.039, 0.019, and 0.009 μM. OD600 readings were obtained after 18 h using a Synergy H4 Hybrid Multi-Mode Microplate Reader (BioTeK). Cell-free untreated medium, and untreated cell culture were used as negative controls. The MIC of nisin against B. subtilis BSF2470 was determined following the same methods.
# The possibility of direct interaction between epilancin 15X and specific lipids was examined through lipid protection assays. […] In an agar diffusion assay, purified S. aureus LTA antagonized the bioactivity of epilancin 15X but not nisin A (Supplementary Figure S5A).
# [6] = system: cell wall biosynthesis in S. carnosus TM300; assay: Macromolecular synthesis assay: 14C-N-acetyl-D-glucosamine incorporation into cell wall; format: cell-based, Staphylococcus carnosus; conditions: S. carnosus TM300, three independent experiments
# Description: as §1, §2
# [7] = system: S. epidermidis ATCC 12228; assay: MIC determination in 96-well microtiter plate; format: cell-based, Staphylococcus epidermidis; conditions: 37°C, 10^5 CFU/mL, OD600 after 18 h
# Staphylococcus simulans = conditions: ref Wang et al., 2023; cited from earlier work
# Source text: (§4) Recent studies have shown that epilancin 15X activity varies depending on the indicator strain, with bacteriostatic activity against Staphylococcus simulans and Micrococcus flavus but bactericidal activity against Bacillus megaterium ([Wang et al., 2023]).
# Micrococcus flavus = conditions: ref Wang et al., 2023; cited from earlier work
# Source text: as §4
# Bacillus megaterium = conditions: ref Wang et al., 2023; cited from earlier work
# Source text: as §4
# B. subtilis BSF2470 = assay: Membrane permeability study with propidium iodide (flow cytometry); format: cell-based, Bacillus subtilis; conditions: B. subtilis BSF2470, 20 min exposure, 0.5x, 1x, 4x MIC, n = 3
# Description: as §3
# [8] = B. subtilis LTA (-) added, ~100 µM
# [9] = S. aureus LTA (-) added, ~100 µM
substance,measurement,setting,value
Epilancin 15X,fluorescence signal (pore formation),[1]; POPC-cholesterol liposomes with 0.1% lipid II,did not induce pore formation
same,fluorescence signal (pore formation) compared to buffer control,[1]; POPC-cholesterol liposomes without lipid II,no increase in fluorescence signal
same,fatty acid biosynthesis (14C-acetic acid incorporation),[2],decrease
same,DNA biosynthesis (14C-thymidine incorporation),[3],considerably stronger effect than that observed with the respective negative controls
same,PI uptake (membrane disruption),S. carnosus TM300 [4],increase
same,Increase in MIC compared to WT,S. carnosus TM300 [5]; [8],8 X
same,Increase in MIC compared to WT,"S. carnosus TM300 [5]; Cardiolipin (-) added, 130 µM",8 X
same,Increase in MIC compared to WT,"S. carnosus TM300 [5]; DGDG added, 100 µM",did not display any protection affect
same,Increase in MIC compared to WT,"S. carnosus TM300 [5]; POPC added, 130 µM",did not display any protection affect
same,Increase in MIC compared to WT,"S. carnosus TM300 [5]; POPE added, 500 µM",did not display any protection affect
same,Increase in MIC compared to WT,"S. carnosus TM300 [5]; POPG (-) added, 100 µM",4 X
same,Increase in MIC compared to WT,S. carnosus TM300 [5]; [9],> 16 X
same,Epilancin MIC,S. carnosus TM300 [5]; [8],2.5 µM
same,Epilancin MIC,"S. carnosus TM300 [5]; Cardiolipin (-) added, 130 µM",2.5 µM
same,Epilancin MIC,"S. carnosus TM300 [5]; DGDG added, 100 µM",0.31 µM
same,Epilancin MIC,"S. carnosus TM300 [5]; POPC added, 130 µM",0.31 µM
same,Epilancin MIC,"S. carnosus TM300 [5]; POPE added, 500 µM",0.31 µM
same,Epilancin MIC,"S. carnosus TM300 [5]; POPG (-) added, final concentration 100 µM",1.25 µM
same,Epilancin MIC,S. carnosus TM300 [5]; [9],> 5 µM
same,increase of epilancin 15X MIC,S. carnosus TM300 [5]; growth medium supplemented with 2.5 μM LTA isolated from S. aureus,at least 8 fold
same,increase of epilancin 15X MIC,S. carnosus TM300 [5]; growth medium supplemented with POPG,at least 4 fold
same,increase of epilancin 15X MIC,S. carnosus TM300 [5]; growth medium supplemented with cardiolipin,at least 4 fold
same,cell wall biosynthesis (14C-N-acetyl-D-glucosamine incorporation),[6],no clear change
same,MIC,[7],0.62 µM
same,type of antimicrobial activity,Staphylococcus simulans,bacteriostatic
same,type of antimicrobial activity,Micrococcus flavus,bacteriostatic
same,type of antimicrobial activity,Bacillus megaterium,bactericidal
same,PI uptake (membrane disruption),B. subtilis BSF2470,increase
